{"source": "paper PMC5171790", "about": "“Ribavirin suppresses bacterial virulence by targeting LysR-type transcriptional regulators” (Scientific Reports, 2016)", "key": {"Hrg": {"molecular_target": "Hrg", "assay": "ITC", "conditions": "10 mM sodium phosphate, 50 mM NaCl, pH 7.4, 25 °C; single-site model"}, "AphB": {"molecular_target": "T1, AphB (Vibrio cholerae, UniProt Q9KT56)", "T1 construct": "gene VC_1049", "assay": "biochemical"}}}
{"smiles": "NC(=O)c1ncn([C@@H]2O[C@H](CO)[C@@H](O)[C@H]2O)n1", "note": "[ribavirin, 1-D-ribofuranosyl-1H-1,2,4-triazole-3-carboxamide]", "values": [{"measurement": "Kd", "setting": "Hrg", "value": 235, "unit": "µM"}, {"measurement": "Kd", "setting": "AphB", "value": "~300", "unit": "µM"}]}
